Source: PMC5050145 (European journal of nuclear medicine and molecular imaging, 2016)
“And” between values parts separate entries of the source, which are not always exact repeats. Equal entries are not always repeated.

Experiments:
[1] = Dosimetry: mouse microPET biodistribution extrapolated to humans; type: in vivo, C57BL6 mice; details: for effective dose: administered activity of 200 MBq
[2] = Stability of the final product in formulation; type: physicochemical; details: 3 h; buffered solution at pH 6.8
[3] = Biodistribution by microPET/CT imaging in C57BL6 mice; type: in vivo; details: 1 h post-injection, microPET
[4] = In-vitro stability in mouse blood plasma; type: in vitro ADME; details: 2 h, 37 °C
[5] = In-vitro stability in human blood plasma; type: in vitro ADME; details: 2 h, 37 °C
PSMA = details: read-out: Ki value towards PSMA; complexed to natGa; cell-based assay; cited from earlier work
LNCaP cells = details: complexed to natGa; cited from earlier work

O=C([O-])CN(CCN(CC(=O)[O-])Cc1cc(CCC(=O)NCCCCCC(=O)NCCCC[C@H](NC(=O)N[C@@H](CCC(=O)O)C(=O)O)C(=O)O)ccc1O)Cc1cc(CCC(=O)O)ccc1O.[18F-].[Al+3] [18F-PSMA-11]
Mean RT (time-integrated activity coefficient) scaled to humans ([1]; Bone, Method 1): 0.045 ± 0.013 h | Mean RT (time-integrated activity coefficient) scaled to humans ([1]; Bone, Method 2): 0.114 ± 0.028 h | mean extrapolated effective dose per unit activity ([1]; Method 1): 8.59 × 10^−3 ± 7.46 × 10^−4 mSv/MBq | effective dose ([1]; Method 1): 1.72 mSv and 1.7 mSv | effective dose ([1]; Method 2): 1.25 mSv | maximum administered human activity limit ([1]; Method 2, kidneys dose-limiting, 21CFR361.1): 1,742 MBq | Mean RT (time-integrated activity coefficient) scaled to humans ([1]; Muscle, Method 2): 0.077 ± 0.018 h | Mean RT (time-integrated activity coefficient) scaled to humans ([1]; Tot. Kidney, Method 1): 0.141 ± 0.033 h | Mean RT (time-integrated activity coefficient) scaled to humans ([1]; Tot. Kidney, Method 2): 0.042 ± 0.009 h | feasible injected activities ([1]; most stringent dosimetric calculations): up to 0.56 GBq | mean extrapolated effective dose per unit activity ([1]; second value, printed Method 1): 6.23 × 10^−3 ± 5.74 × 10^−4 mSv/MBq | radiochemical purity in stability test [2]: > 97% | tissue uptake, bladder [3]: 77.4 ± 39.1 %ID/g | tissue uptake, kidneys [3]: 119.3 ± 16.5 %ID/g | intact compound [4]: 91% | intact compound [5]: 94%

O=C(O)CCc1ccc(O)c(CN(CCN(CC(=O)O)Cc2cc(CCC(=O)NCCCCCC(=O)NCCCC[C@H](NC(=O)N[C@@H](CCC(=O)O)C(=O)O)C(=O)O)ccc2O)CC(=O)O)c1 [PSMA-11, Glu-urea-Lys (Ahx)-HBED-CC]
Ki (PSMA): 12 ± 2.8 nM | uptake in PSMA-positive LNCaP cells (LNCaP cells): readily taken up
